For six molecules, GI50 and TGI results are on record in PubChem BioAssay (NCI).

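These data come from cells grown in 96-well plates and exposed to compound for 48 hours at five concentrations. GI50 marks 50% less growth. Definition used: TGI = concentration required for complete inhibition of growth.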

Some test systems named below: CAKI-1 renal; EKVX NSCLC; HCC-2998 colon; HCT-116 colon; HS 578T breast; MOLT-4 leukemia; NCI-H226 lung; NCI-H23 lung; SK-MEL-2 melanoma; UACC-257 melanoma.
Assay in all cases: NCI tumour cell line growth inhibition, 48 h

For `COc1cc(C)c(C(=O)O[C@H]2[C@H](O[C@H]3[C@@H](O)COC(O[C@H]4C[C@H]5[C@@H]6CC=C7C[C@@H](O)CC[C@]7(C)[C@H]6CC[C@]5(C)[C@H]4[C@H](C)C(=O)CCC(C)C)[C@@H]3OC(C)=O)OC[C@@H](O)[C@@H]2O)c(C)c1` (stereo not given in full), the GI50 in the assay on CAKI-1 renal was less than 0.01 µM; in the assay with EKVX NSCLC it was 1.06 µM; in the assay on HCC-2998 colon, 2.41 µM; in the assay on HCT-116 colon, less than 0.01 µM; in the assay with HS 578T breast, less than 0.01 µM; in the assay with MOLT-4 leukemia, less than 0.01 µM. Further, the GI50 is 0.135 µM with NCI-H226 lung, 0.384 µM in the assay on NCI-H23 lung, less than 0.01 µM in the assay on SK-MEL-2 melanoma and 0.021 µM in the assay with UACC-257 melanoma. Also, the TGI in the assay with CAKI-1 renal turned out to be 1.18 µM; with EKVX NSCLC, 15.1 µM; in the assay on HCC-2998 colon, 20.3 µM; in the assay with HCT-116 colon, 2.29 µM; with HS 578T breast it was 0.161 µM; in the assay with MOLT-4 leukemia it was 0.704 µM. Besides, the TGI with NCI-H226 lung was 12.4 µM; with NCI-H23 lung it was 14.2 µM; in the assay on SK-MEL-2 melanoma, 0.302 µM; in the assay with UACC-257 melanoma, 0.0738 µM.

As to `CN(C)C[C@H]1CC[C@@H](CN(C)C)C1=O`, in the assay with CAKI-1 renal, the GI50 was 0.297 µM. Further, the TGI with EKVX NSCLC was 24.3 µM; with HCC-2998 colon, more than 37.5 µM; in the assay on HCT-116 colon, 15.6 µM; with HS 578T breast, 36.6 µM; in the assay with MOLT-4 leukemia, 4.69 µM; in the assay on NCI-H226 lung, 32.3 µM. Besides, the TGI in the assay with NCI-H23 lung worked out at 18.4 µM; in the assay on SK-MEL-2 melanoma, 15.4 µM; in the assay with UACC-257 melanoma it was 16 µM.

Turning to `Cc1ccc2nc3c(C)c(Cl)c(=O)cc-3sc2c1`, the TGI is more than 100 µM with CAKI-1 renal; more than 95.6 µM in the assay on EKVX NSCLC; more than 100 µM with HCC-2998 colon; 58 µM with HCT-116 colon; 71.7 µM in the assay with HS 578T breast; 41.3 µM in the assay with MOLT-4 leukemia. The TGI in the assay with NCI-H226 lung worked out at 64 µM; in the assay with NCI-H23 lung, 34.3 µM; in the assay on SK-MEL-2 melanoma it was 37.5 µM; with UACC-257 melanoma, 53.8 µM.

Take `NC(=O)CCC(NC(=O)OCc1ccccc1)C(=O)OCC(=O)c1ccccc1` (stereo not given): the GI50 with CAKI-1 renal was more than 100 µM; in the assay on EKVX NSCLC, more than 100 µM; in the assay with HCC-2998 colon it was 65.6 µM; in the assay on HCT-116 colon it was more than 100 µM; with HS 578T breast, more than 100 µM; with MOLT-4 leukemia, more than 100 µM. Also, the GI50 in the assay on NCI-H226 lung, in the assay with NCI-H23 lung, in the assay with SK-MEL-2 melanoma and in the assay on UACC-257 melanoma was more than 100 µM in each case. Further, the TGI in the assay with CAKI-1 renal, in the assay on EKVX NSCLC, in the assay on HCC-2998 colon, with HCT-116 colon, in the assay with HS 578T breast and in the assay on MOLT-4 leukemia was more than 100 µM throughout. Besides, the TGI in the assay with NCI-H226 lung, in the assay with NCI-H23 lung, in the assay with SK-MEL-2 melanoma and in the assay with UACC-257 melanoma was more than 100 µM in each case.

As for `COc1ccc(/C(C)=C(\c2ccc(Cl)cc2)c2ccc(OCCN3CCCC3)cc2)cc1`, the GI50 was 4.85 µM in the assay on CAKI-1 renal; 2.97 µM in the assay with EKVX NSCLC; 3.06 µM with HCC-2998 colon; 1.55 µM with HCT-116 colon; 4.71 µM with HS 578T breast; 3.88 µM in the assay on MOLT-4 leukemia. The GI50 in the assay on NCI-H226 lung was 5.54 µM; with NCI-H23 lung, 4.29 µM; with SK-MEL-2 melanoma it was 6.45 µM; in the assay on UACC-257 melanoma, 4.6 µM. Moreover, the TGI in the assay with CAKI-1 renal amounted to 9.29 µM; in the assay on EKVX NSCLC, 7.3 µM; with HCC-2998 colon, 7.41 µM; in the assay with HCT-116 colon it was 5.78 µM; in the assay on HS 578T breast it was 11.8 µM; in the assay with MOLT-4 leukemia, 10.9 µM. Also, the TGI in the assay on NCI-H226 lung turned out to be 11.6 µM; in the assay with NCI-H23 lung it was 8.98 µM; with SK-MEL-2 melanoma, 11.6 µM; in the assay with UACC-257 melanoma, 9.24 µM.

On to `COc1ccc(N2CCN(C(=O)c3ccccc3Nc3ccnc(C(F)(F)F)c3)CC2)cc1`, for which the GI50 with CAKI-1 renal is 48.8 µM; in the assay on EKVX NSCLC, 39.3 µM; in the assay with HCC-2998 colon, more than 100 µM; in the assay on HCT-116 colon, 37.7 µM; in the assay on HS 578T breast, 60.6 µM; in the assay on MOLT-4 leukemia, 29.3 µM. Besides, the GI50 in the assay with NCI-H226 lung was 96.5 µM; in the assay with NCI-H23 lung, 17.3 µM; in the assay with SK-MEL-2 melanoma, more than 100 µM; in the assay with UACC-257 melanoma it was 20.8 µM. Further, the TGI in the assay with CAKI-1 renal, with EKVX NSCLC, with HCC-2998 colon, with HCT-116 colon, with HS 578T breast and with MOLT-4 leukemia was more than 100 µM each time. In addition, the TGI in the assay with NCI-H226 lung, in the assay on NCI-H23 lung, in the assay on SK-MEL-2 melanoma and in the assay on UACC-257 melanoma was more than 100 µM throughout.
